The text below walks through data of patent publication US6518012B1, “Method for regulating the expression of MHC antigens and CD40 by inhibitors of histone deacetylation” (Health Research, Inc., priority 1999, dated 2003).

For series [1], the system named is MC, Colon 26 and J558 cells. Briefly: Apoptosis by flow cytometry (sub-G0 PI staining, annexin-V). In kind it is cell-based. The following applies: low concentrations of TSA employed in FIG. 8. As for the experimental part: (§1) To determine the effect of TSA on cell surface protein expression, the J558 cell line was subjected to flow cytometric analyses as follows. Flow cytometric analyses were conducted by standard methods using cells fixed with 1.0% paraformaldehyde and analyzed on the FACScan (Becton Dickinson). Cell cycle analyses were carried out by flow cytometry with PI staining of genomic DNA. Cells were fixed and permeablized in methanol, treated with RNaseA and analyzed for DNA content by determination of FL3-area on the FACScan. The FL3-area data were analyzed with the ModFit software for determination of the percent cells in each phase of the cell cycle. In some cases, fluorescein isothiocyanate (FITC)-conjugated antibody staining was conducted prior to PI treatment and surface staining was analyzed as a function of cell cycle phase. Apoptosis was analyzed by staining with annexin-V directly conjugated with either FITC or RPE and by sub-G0 analysis of DNA staining. […] Isotype controls were analyzed and, in each case, fell on or below the levels shown for control cells. […] Since all cells were positive for MHC class I expression, the number under the histogram represents -fold change of expression calculated from the mean channel-shift after treatment relative to untreated cells. […]

In the next series the test system is MHC class I. Briefly: Cell surface MHC class I by flow cytometry on SK-N-MC. Format: cell-based, human. The following applies: 50 nM TSA 48 hours. For orientation: Flow cytometry measures light scatter and fluorescence of single cells or particles in a stream.
In the next series the test system is J558 cells. Nature of the series: Other cell surface markers by flow cytometry on J558 cells. Format: cell-based, mouse. The following applies: TSA treatment. As to the method:
as §1

The next series has as its system CD40. Nature of the series: Cell surface CD40 by flow cytometry on SK-N-MC. In kind it is cell-based, human. The following applies: 50 nM TSA 48 hours.
The test system of another series is cell lines employed. Nature of the series: Toxicity of deacetylase inhibitors (lift-off, trypan-blue dye exclusion, laddering, PI/annexin-V flow cytometry). In kind it is cell-based. The following applies: TSA from 5 nM to 250 nM for 6 to 72 hr. As to the method:
Two representative DAIs, TSA and NaBu were used for this illustration. […] In some experiments, 100 U/ml γ-IFN was added with and without the deacetylase inhibitor.

The subject of series [2] is MC, Colon 26 and J558 cells. Nature of the series: Cell cycle analysis by DNA staining and flow cytometry. Format: cell-based. The following applies: TSA concentrations used in FIG. 8 (50 nM 48 hours MC and Colon 26; 25 nM 24 hours J558); data not shown. As for the experimental part:
as §1

Series [3] relates to interferon regulatory factor (IRF-1) and guanylate binding protein (GBP) mRNA. Briefly: mRNA of IFNγ inducible genes IRF-1 and GBP in SK-N-MC. In kind it is cell-based, human. The following applies: IFNγ treatment, data not shown.

Regarding `CC(/C=C/C(=O)NO)=C\[C@@H](C)C(=O)c1ccc(N(C)C)cc1` [TSA, Trichostatin A], the apoptosis entry in series [1] is “could not be detected”. The “MHC class I expression on cell surface” value with MHC class I is listed as “enhanced”. Further, in the series on J558 cells, the “expressed markers (CD44, CD54, CD80, CD86, CD119)” value is on record as “not altered” and the “levels of non-expressed antigens (CD25, B7 integrin, CD40L, H2K^k, IA^k)” value was “not elicited”. In the series on CD40, the “expression of CD40 on cell surface” value is “induced expression”. For the same compound, the toxicity result with cell lines employed was “non toxic”. The “effect on the cell cycle” value in series [2] was “did not significantly alter”.
Take “IFNγ: gamma-interferon, cytokine used as comparator at 100 U/ml”: in series [3], the “mRNA for IRF-1 and GBP” value was “enhanced”.
